Data published in ChEMBL document CHEMBL3228010, “Potential antitumor agents. 29. Quantitative structure-activity relationships for the antileukemic bisquaternary ammonium heterocycles” (J Med Chem, 1979).

Legend:
L1210 = test: Antitumor activity against mouse L1210 cells […] in ip dosed C3H X DBA2 F1 hybrid mouse on day 0 and dosed at LD10 level once daily on days 1 to 5 assessed as increase in life span relative to control; format: functional
Mus musculus = test: Toxicity in ip dosed C3H X DBA2 F1 hybrid mouse […] with mouse L1210 cells on day 0 and dosed once daily on days 1 to 5 measured after 50 days; format: organism-based; conditions: in vivo, 1200 h
[1] = Lipophilic-hydrophilic balance, Rm of the compound by partition chromatography; format: physicochemical

**Q.** Which “log(ILSmax)” value (L1210) does the source give for CC[n+]1cccc2cc(NC(=O)c3ccc(NC(=O)c4ccc5c(ccc[n+]5CC)c4)cc3)ccc21.Cc1ccc(S(=O)(=O)[O-])cc1.Cc1ccc(S(=O)(=O)[O-])cc1 here?
**A.** Its value is <1.4.

**Q.** What about the LD10 (Mus musculus) of the same compound?
**A.** The LD10 was 4 mg/kg.

**Q.** What about the Rm [1] of the same compound?
**A.** Its Rm is 0.02.

**Q.** Which “log(ILSmax)” value (L1210) does the source give for CCC[n+]1ccccc1Nc1ccc(NC(=O)c2ccc(C(=O)Nc3ccc(Nc4cccc[n+]4CCC)cc3)cc2)cc1.Cc1ccc(S(=O)(=O)[O-])cc1.Cc1ccc(S(=O)(=O)[O-])cc1 here?
**A.** Its value is <1.4.

**Q.** What about the LD10 (Mus musculus) of the same compound?
**A.** The LD10 was 100 mg/kg.

**Q.** And the Rm [1]?
**A.** Its Rm is 0.71.

**Q.** For CC(=NNC(=N)N)c1ccc(NC(=O)c2ccc(C(=O)Nc3ccc(Nc4cc[n+](C)cc4)cc3)cc2)cc1.Cc1ccc(S(=O)(=O)O)cc1.Cc1ccc(S(=O)(=O)[O-])cc1, which Rm [1] is on record?
**A.** The Rm was -0.15.

**Q.** For CCOCC[n+]1cccc2cc(NC(=O)c3ccc(C(=O)Nc4ccc5c(ccc[n+]5CCOCC)c4)cc3)ccc21.Cc1ccc(S(=O)(=O)[O-])cc1.Cc1ccc(S(=O)(=O)[O-])cc1, which “log(ILSmax)” value (L1210) is on record?
**A.** The value was <1.4.

**Q.** And the LD10 (Mus musculus)?
**A.** The LD10 was 20 mg/kg.

**Q.** What about the Rm [1] of the same compound?
**A.** Its Rm is 0.8.

**Q.** What does the source list for CC[n+]1ccccc1NC(=O)c1ccc(NC(=O)c2ccc(C(=O)Nc3ccc(C(=O)Nc4cccc[n+]4CC)cc3)cc2)cc1.Cc1ccc(S(=O)(=O)[O-])cc1.Cc1ccc(S(=O)(=O)[O-])cc1?
**A.** log(ILSmax) (L1210): <1.4; LD10 (Mus musculus): 13 mg/kg; Rm [1]: 0.57

**Q.** Which Rm [1] does the source give for CCCC[n+]1cccc2cc(NC(=O)Cc3ccc(CC(=O)Nc4ccc5c(ccc[n+]5CCCC)c4)cc3)ccc21.Cc1ccc(S(=O)(=O)[O-])cc1.Cc1ccc(S(=O)(=O)[O-])cc1 here?
**A.** The Rm was 0.92.

**Q.** With CC[n+]1cccc2cc(NC(=O)c3ccc(C(=O)Nc4ccc5c(ccc[n+]5CC)c4)c(N)c3)ccc21.Cc1ccc(S(=O)(=O)[O-])cc1.Cc1ccc(S(=O)(=O)[O-])cc1 as the compound, how does the “log(ILSmax)” value (L1210) read?
**A.** Its value is <1.4.

**Q.** And the LD10 (Mus musculus)?
**A.** Its LD10 is 6 mg/kg.

**Q.** What about the Rm [1] of the same compound?
**A.** The Rm was -0.01.

**Q.** What does the source list for CC[n+]1cccc2cc(NC(=O)CCc3ccc(C(=O)Nc4ccc5c(ccc[n+]5CC)c4)cc3)ccc21.Cc1ccc(S(=O)(=O)[O-])cc1.Cc1ccc(S(=O)(=O)[O-])cc1?
**A.** log(ILSmax) (L1210): <1.4; LD10 (Mus musculus): 1.6 mg/kg; Rm [1]: 1.1

**Q.** Which “log(ILSmax)” value (L1210) does the source give for C[n+]1cccc2cc(NC(=O)c3ccc(C(=O)Nc4ccc5c(ccc[n+]5C)c4)nc3)ccc21.Cc1ccc(S(=O)(=O)[O-])cc1.Cc1ccc(S(=O)(=O)[O-])cc1 here?
**A.** The value was <1.4.

**Q.** And the LD10 (Mus musculus)?
**A.** Its LD10 is 4 mg/kg.

**Q.** And the Rm [1]?
**A.** Its Rm is -0.4.

**Q.** For CC[n+]1ccc(Nc2ccc(NC(=O)c3ccc(Nc4cc[n+](CC)c5ccccc45)cc3N)cc2N)cc1.[I-].[I-], which “log(ILSmax)” value (L1210) is on record?
**A.** The value was <1.4.

**Q.** What about the LD10 (Mus musculus) of the same compound?
**A.** The LD10 was 20 mg/kg.

**Q.** And the Rm [1]?
**A.** Its Rm is 0.35.

**Q.** For CCC[n+]1cccc(NC(=O)c2ccc(NC(=O)c3ccc(C(=O)Nc4ccc(C(=O)Nc5ccc[n+](CCC)c5)cc4)c(C)c3)cc2)c1.Cc1ccc(S(=O)(=O)[O-])cc1.Cc1ccc(S(=O)(=O)[O-])cc1, which “log(ILSmax)” value (L1210) is on record?
**A.** The value was <1.4.

**Q.** And the LD10 (Mus musculus)?
**A.** The LD10 was 30 mg/kg.

**Q.** What about the Rm [1] of the same compound?
**A.** Its Rm is 0.75.

**Q.** With C[n+]1ccccc1-c1ccc(NC(=O)c2ccc(C(=O)Nc3ccc(-c4cccc[n+]4C)cc3)cc2)cc1.Cc1ccc(S(=O)(=O)[O-])cc1.Cc1ccc(S(=O)(=O)[O-])cc1 as the compound, how does the “log(ILSmax)” value (L1210) read?
**A.** Its value is <1.4.

**Q.** What about the LD10 (Mus musculus) of the same compound?
**A.** Its LD10 is 10 mg/kg.

**Q.** What about the Rm [1] of the same compound?
**A.** Its Rm is 0.11.

**Q.** What does the source list for C[n+]1cccc2cc(NC(=O)COc3ccc(C(=O)Nc4ccc5c(ccc[n+]5C)c4)cc3)ccc21.Cc1ccc(S(=O)(=O)[O-])cc1.Cc1ccc(S(=O)(=O)[O-])cc1?
**A.** log(ILSmax) (L1210): <1.4; LD10 (Mus musculus): 0.6 mg/kg; Rm [1]: -0.3

**Q.** Which “log(ILSmax)” value (L1210) does the source give for CCC[n+]1cccc(NC(=O)c2ccc(NC(=O)C34CCC(C(=O)Nc5ccc(C(=O)Nc6ccc[n+](CCC)c6)cc5)(CC3)CC4)cc2)c1.Cc1ccc(S(=O)(=O)[O-])cc1.Cc1ccc(S(=O)(=O)[O-])cc1 here?
**A.** The value was 1.54.

**Q.** What about the LD10 (Mus musculus) of the same compound?
**A.** Its LD10 is 30 mg/kg.

**Q.** And the Rm [1]?
**A.** Its Rm is 0.86.

**Q.** Which “log(ILSmax)” value (L1210) does the source give for CC[n+]1ccccc1Nc1ccc(NC(=O)c2ccc(C(=O)Nc3ccc(Nc4cccc[n+]4CC)cc3)cc2)cc1.[I-].[I-] here?
**A.** The value was <1.4.

**Q.** And the LD10 (Mus musculus)?
**A.** The LD10 was 16 mg/kg.

**Q.** And the Rm [1]?
**A.** Its Rm is 0.53.

**Q.** Which results are given for CC[n+]1ccc(Nc2ccc(NC(=O)CCCCCCC(=O)Nc3ccc(Nc4cc[n+](CC)cc4)cc3)cc2)cc1.[Br-].[Br-]?
**A.** log(ILSmax) (L1210): <1.4; LD10 (Mus musculus): 10 mg/kg; Rm [1]: 0.83

**Q.** With CC[n+]1ccc(Nc2ccc(NC(=O)CCCCCC(=O)Nc3ccc(Nc4cc[n+](CC)cc4)cc3)cc2)cc1.[O-][Cl+3]([O-])([O-])[O-].[O-][Cl+3]([O-])([O-])[O-] as the compound, how does the “log(ILSmax)” value (L1210) read?
**A.** Its value is <1.4.

**Q.** And the LD10 (Mus musculus)?
**A.** Its LD10 is 20 mg/kg.

**Q.** What about the Rm [1] of the same compound?
**A.** Its Rm is 0.69.

**Q.** Which results are given for CCC[n+]1ccccc1NC(=O)c1ccc(NC(=O)c2ccc(C(=O)Nc3ccc(C(=O)Nc4cccc[n+]4CCC)cc3)cc2)cc1.Cc1ccc(S(=O)(=O)[O-])cc1.Cc1ccc(S(=O)(=O)[O-])cc1?
**A.** log(ILSmax) (L1210): <1.4; LD10 (Mus musculus): 100 mg/kg; Rm [1]: 0.73

**Q.** Which results are given for CC[n+]1cccc2cc(NC(=O)c3ccc(C(=O)Nc4ccc5c(ccc[n+]5CC)c4)cc3)ccc21.Cc1ccc(S(=O)(=O)[O-])cc1.Cc1ccc(S(=O)(=O)[O-])cc1?
**A.** log(ILSmax) (L1210): 1.43; LD10 (Mus musculus): 4 mg/kg; Rm [1]: 0.03

**Q.** Which Rm [1] does the source give for C[n+]1cccc2cc(NC(=O)Cc3ccc(CC(=O)Nc4ccc5c(ccc[n+]5C)c4)cc3)ccc21.Cc1ccc(S(=O)(=O)[O-])cc1.Cc1ccc(S(=O)(=O)[O-])cc1 here?
**A.** The Rm was 0.07.

**Q.** What does the source list for CCCC[n+]1cccc2cc(NC(=O)c3ccc(NC(=O)c4ccc5c(ccc[n+]5CCCC)c4)cc3)ccc21.Cc1ccc(S(=O)(=O)[O-])cc1.Cc1ccc(S(=O)(=O)[O-])cc1?
**A.** log(ILSmax) (L1210): <1.4; LD10 (Mus musculus): 200 mg/kg; Rm [1]: 0.59

**Q.** For CC[n+]1cccc(NC(=O)c2ccc(NC(=O)c3ccc(C(=O)Nc4ccc[n+](CC)c4)cc3)cc2)c1.Cc1ccc(S(=O)(=O)[O-])cc1.Cc1ccc(S(=O)(=O)[O-])cc1, which “log(ILSmax)” value (L1210) is on record?
**A.** The value was <1.4.

**Q.** And the LD10 (Mus musculus)?
**A.** Its LD10 is 8 mg/kg.

**Q.** And the Rm [1]?
**A.** The Rm was 0.3.

**Q.** Which “log(ILSmax)” value (L1210) does the source give for CC[n+]1ccccc1-c1ccc(NC(=O)c2ccc(C(=O)Nc3ccc(-c4cccc[n+]4CC)cc3)cc2)cc1.Cc1ccc(S(=O)(=O)[O-])cc1.Cc1ccc(S(=O)(=O)[O-])cc1 here?
**A.** Its value is <1.4.

**Q.** What about the LD10 (Mus musculus) of the same compound?
**A.** Its LD10 is 10 mg/kg.

**Q.** And the Rm [1]?
**A.** Its Rm is 0.26.

**Q.** What does the source list for CCC[n+]1cccc(NC(=O)c2ccc(NC(=O)c3ccc(C(=O)Nc4ccc(C(=O)Nc5ccc[n+](CCC)c5)cc4)c(N)c3)cc2)c1.Cc1ccc(S(=O)(=O)[O-])cc1.Cc1ccc(S(=O)(=O)[O-])cc1?
**A.** log(ILSmax) (L1210): <1.4; LD10 (Mus musculus): 47 mg/kg; Rm [1]: 0.2

**Q.** Which results are given for CCC[n+]1ccc(Nc2ccc(NC(=O)c3ccc(Nc4cc[n+](CCC)c5ccccc45)cc3)cc2N)cc1.[I-].[I-]?
**A.** log(ILSmax) (L1210): 1.43; LD10 (Mus musculus): 4.4 mg/kg; Rm [1]: 0.76

**Q.** For CCC[n+]1ccc(Nc2ccc(NC(=O)c3ccc(Nc4cc[n+](CCC)c5ccccc45)cc3N)cc2N)cc1.[I-].[I-], which “log(ILSmax)” value (L1210) is on record?
**A.** Its value is <1.4.

**Q.** What about the LD10 (Mus musculus) of the same compound?
**A.** The LD10 was 15 mg/kg.

**Q.** What about the Rm [1] of the same compound?
**A.** The Rm was 0.63.

**Q.** What does the source list for CCC[n+]1cccc2cc(NC(=O)CCc3ccc(C(=O)Nc4ccc5c(ccc[n+]5CCC)c4)cc3)ccc21.Cc1ccc(S(=O)(=O)[O-])cc1.Cc1ccc(S(=O)(=O)[O-])cc1?
**A.** log(ILSmax) (L1210): <1.4; LD10 (Mus musculus): 2 mg/kg; Rm [1]: 1.25

**Q.** Which results are given for CCCCC[n+]1cccc2cc(NC(=O)c3ccc(C(=O)Nc4ccc5c(ccc[n+]5CCCCC)c4)nc3)ccc21.Cc1ccc(S(=O)(=O)[O-])cc1.Cc1ccc(S(=O)(=O)[O-])cc1?
**A.** log(ILSmax) (L1210): <1.4; LD10 (Mus musculus): 250 mg/kg; Rm [1]: 0.6

**Q.** Which results are given for CCCCCC[n+]1cccc2cc(NC(=O)c3ccc(C(=O)Nc4ccc5c(ccc[n+]5CCCCCC)c4)cc3)ccc21.Cc1ccc(S(=O)(=O)[O-])cc1.Cc1ccc(S(=O)(=O)[O-])cc1?
**A.** log(ILSmax) (L1210): <1.4; LD10 (Mus musculus): 27 mg/kg; Rm [1]: 1.03
